# Assay results as given in patent US20030125234A1, “Alteration of protein stability” (priority 2001, published 2003).
# Residues, ends and D or L forms follow the SMILES beside them.
# Key:
# Type in all cases: biochemical
# [1] = molecular target: T1, porcine somatotropin (pST) (Sus scrofa, UniProt P01248); assay: Porcine somatotropin aggregation (turbidity at 360 nm) with PEG 8000; conditions: pST 1.27 mg/mL, 60° C., standard deviation in parenthesis
# T1 construct: purchased Pfizer, Inc., Groton, Conn., USA (provided, not bought)
# T1 sequence (P01248 27-216): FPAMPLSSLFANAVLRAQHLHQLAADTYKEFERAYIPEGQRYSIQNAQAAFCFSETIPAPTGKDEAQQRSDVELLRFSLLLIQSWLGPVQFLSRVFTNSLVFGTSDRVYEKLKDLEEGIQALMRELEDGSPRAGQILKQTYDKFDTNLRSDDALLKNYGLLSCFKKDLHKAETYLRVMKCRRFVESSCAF
# Experimental: (§1) Bovine insulin [Sigma, St. Louis, Mo., USA] was dissolved in phosphate saline (PBS) (50 mM sodium biphosphate, 100 mM sodium chloride), pH 7.0, bovine alpha-lactalbumin [Sigma] in 50 mM sodium phosphate, 100 mM sodium chloride and 2 mM EDTA, pH 6.2, chicken egg white lysozyme [Sigma] in 100 mM Tris, 1 mM EDTA, pH 8.2, human acidic fibroblast growth factor (FGF-1) in 6.2 mM sodium biphosphate, 120 mM sodium chloride, pH 7.2, porcine somatotropin (pST) [provided by Pfizer, Inc., Groton, Conn., USA] in 10 mM phosphate, pH 6. 1, human apolactoferrin (HLF) [Sigma] in 20 mM HEPES, 154 mM NaCl, pH 7.4, porcine heart citrate synthase (CS) in 40 mM HEPES, 50 mM KCl, 10 mM (NH4)2SO4 mM potassium acetate, pH 7.8, and yeast alcohol dehydrogenase (ADH) [Sigma] in pH 7.0 PBS. Selection of buffer solutions was based on an extensive series of preliminary studies to obtain appropriate insolubilization kinetics as described below.
# (§2) Copper O-phenanthroline (1,10-phenanthroline) was prepared by mixing copper sulfate hexahydrate [Fisher] and o-phenanthroline [Sigma] in a 1:2 ratio. 1 M Dithiothreitol (DTT) was prepared at pH 7.0 PBS. Polyethylene glycol (M.W. 8000, Union Carbide, Danbury, Conn., USA) (PEG) was prepared at 20 mg/mL in 10 mM phosphate, pH 6.1.
# (§3) The following compounds were obtained from Sigma and used without further purification: oxalic acid, sodium malonate, succinic acid, glutaric acid, adipic acid, pimelic acid, suberic acid, azelaic acid, guanidine hydrochloride, ammonium formate, beta-alanine, 4-aminobutyric acid, 5-aminovaleric acid, 6-aminocaproic acid, 7-aminoheptanoic acid, hydrazine, ethylenediamine, 1,3-diaminopropane, 1,4-diaminobutane, 1,5-diaminopentane, 1,6-diaminohexane, 1,7-diaminoheptane, Glu-Glu, Glu-Lys, Lys-Lys, diglycine, triglycine, tetraglycine, pentaglycine, and hexaglycine. […] Triglycine and tetraglycine were dissolved in pH 8.6 PBS, while pentaglycine and hexaglycine were dissolved in pH 10.6 PBS.
# (§4) Each was either dissolved in pH 7.0 PBS, or pH 6.1 10 mM phosphate, and adjusted to the same pH.
# (§5) Protein aggregation was monitored for 1 hour at 360 nm using an HP8453 UV-visible spectrophotometer system [Hewlett Packard, Germany]. […] Insulin (0.25 mg/mL (4.39E-5 M)) aggregation was monitored at 25° C. after addition of potential inhibitors and 20 μL of 1 M DTT (1.27E-4 M). Alpha-lactabumin (0.4 mg/mL (2.82E-5 M)) aggregation was monitored at 37° C. in the presence of 20 μL of 1 M DTT (1.27E-4 M). Lysozyme (0.4 mg/mL (2.86E-5 M)) aggregation was monitored at 25° C. in the presence of 20 μL of 1 M DTT (1.27E-4 M). FGF-1 (50 μg/mL (3.12E-6 M)) aggregation was monitored at 50° C. Porcine somatotropin (1.27 mg/mL (5.76E-5 M)) aggregation was monitored at 60° C. in the presence of PEG 8000 (20 mg/mL) which was included to enhance the protein association process through a simple exclusion volume effect. HLF (0.4 mg/mL (5.23E-6 M)) aggregation was monitored at 43° C. in the presence of 1.27E-4 M DTT. Citrate synthase (96 μg/mL (9.80E-7 M)) aggregation was monitored at45° C. ADH (1 mg/mL (7.14E-6 M)) was monitored at 37° C. following the addition of 7.76E-5 M Cu(OP)2. Aggregation was compared to protein in the absence of the particular dipolar compound. After stirring, experiments were initiated by the addition of proteins followed by stressing reagents to 1 cm pathlength cuvettes employing a seven-position thermostatted sample holder that was cycled at 30-second intervals. Alternatively, a microtiter plate reader was employed under the same conditions in a 96 well format.
# (§6) All optical density (OD)360nm versus time results were exported into Excel [Microsoft] for data analysis.
# Bovine insulin = molecular target: T2, Bovine insulin (Bos taurus, UniProt P01317); assay: Insulin aggregation (turbidity at 360 nm) induced by DTT; conditions: for inhibition index: Insulin 0.25 mg/mL, 25° C., DTT, compound 100×, standard deviation in parenthesis
# T2 construct: purchased Sigma, St. Louis, Mo., USA
# T2 sequence (P01317 25-54 limits assumed): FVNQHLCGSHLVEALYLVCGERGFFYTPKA
# T2 sequence (P01317 85-105 limits assumed): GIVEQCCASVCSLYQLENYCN
# Experimental: as §1, §2, §3, §4, §5, §6
# [2] = molecular target: T3, porcine heart citrate synthase (CS) (Sus scrofa, UniProt P00889); assay: Citrate synthase thermal aggregation (turbidity at 360 nm); conditions: for inhibition index: CS 96 μg/mL, 45° C., standard deviation in parenthesis
# T3 construct: porcine heart citrate synthase (CS); from tissue; host or cells: porcine heart
# T3 sequence (P00889 28-464): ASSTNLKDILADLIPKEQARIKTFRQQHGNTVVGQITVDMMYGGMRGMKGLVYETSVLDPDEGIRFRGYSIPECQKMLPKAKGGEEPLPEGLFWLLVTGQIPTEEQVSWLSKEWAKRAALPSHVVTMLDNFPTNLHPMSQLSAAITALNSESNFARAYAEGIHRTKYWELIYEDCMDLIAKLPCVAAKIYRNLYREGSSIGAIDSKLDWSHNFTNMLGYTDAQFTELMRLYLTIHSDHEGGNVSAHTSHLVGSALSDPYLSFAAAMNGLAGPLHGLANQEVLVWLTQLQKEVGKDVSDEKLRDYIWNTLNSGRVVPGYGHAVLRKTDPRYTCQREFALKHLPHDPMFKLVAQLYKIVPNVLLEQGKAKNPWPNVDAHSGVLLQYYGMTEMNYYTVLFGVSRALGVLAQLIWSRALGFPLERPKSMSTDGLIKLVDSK
# Experimental: as §1, §3, §4, §5
# (§7) All optical density (OD)360nm versus time results were exported into Excel [Microsoft] for data analysis. […] The maximum rate of change in OD versus time plots (r) was used to determine the rate of the reaction from the slope at this point.
# [3] = molecular target: human acidic fibroblast growth factor (FGF-1) (Homo sapiens, UniProt P05230); assay: FGF-1 thermal aggregation (turbidity at 360 nm); conditions: for inhibition index: FGF-1 50 μg/mL, 50° C., standard deviation in parenthesis
# human acidic fibroblast growth factor (FGF-1), sequence (P05230 whole entry): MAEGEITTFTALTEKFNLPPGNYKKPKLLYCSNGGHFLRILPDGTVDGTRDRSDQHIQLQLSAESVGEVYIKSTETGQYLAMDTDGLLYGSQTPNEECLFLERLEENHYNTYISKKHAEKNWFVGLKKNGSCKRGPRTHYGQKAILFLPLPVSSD
# Experimental: as §1, §3, §4, §5, §7
Molecule,inhibition index ([1]; compound 100X),"inhibition index ([1]; compound 2,000X)","inhibition of insulin aggregation, in words (Bovine insulin)",inhibition index (Bovine insulin),"inhibition index ([2]; compound 10,000X)","inhibition index ([2]; compound 50,000X)","inhibition index ([3]; compound 1,000×)","inhibition index ([3]; compound 10,000×)","inhibition index ([2]; compound 1,000X)","inhibition of citrate synthase aggregation, in words [2]","inhibition of FGF-1 aggregation, in words ([3]; text and FIG. 2 (1,000X to 50,000X))"
"NCCCCCCC(=O)O [7-aminoheptanoate, 7-aminoheptanoic acid]",0.4 (0.0),1.6 (0.2),weak inhibitions,2.4 (1.0),0.5 (0.1),1.7 (0.4),0.9 (0.4),1.3 (0.1),–,–,–
Lys-Lys,0.9 (0.1),–,–,1.1 (0.1),1.6 (0.3),86.8,1.1 (0.1),3.1 (0.8),0.9 (0.1),–,–
"NCCCCCN [1,5-diaminopentane]",0.8 (0.3),1.7 (0.4),–,1.5 (0.6),0.8 (0.2),8.3 (4.5),3.3 (0.7),46.5 (19.8),–,–,–
"NCCCCCC(=O)O [6-aminocaproate, 6-aminocaproic acid]",0.5 (0.1),1.2 (0.2),–,1.4 (0.2),0.5 (0.1),1.5 (0.8),2.2 (0.3),2.4 (0.5),–,–,–
Glu-Glu,0.6 (0.1),–,–,1.0 (0.1),1.5 (0.1),1430.3,1.3 (0.2),7.1 (2.7),0.8 (0.1),Potent inhibitors,–
"NCCCCN [1,4-diaminobutane]",0.6 (0.1),1.4 (0.4),–,1.4 (0.4),0.9 (0.3),4.0 (2.3),2.5 (1.3),33.7 (6.6),–,–,–
"O=C(O)CCCC(=O)O [glutarate, glutaric acid]",0.9 (0.1),3.1 (0.7),–,1.0 (0.2),1.4 (0.5),6.5 (0.3),3.0 (0.9),10.8 (8.4),–,–,–
"NCCCN [1,3-diaminopropane]",0.6 (0.0),1.7 (0.2),–,1.3 (0.3),0.7 (0.3),7.7,2.2 (0.3),3.5 (2.3),–,–,–

# More lines, now with the values ahead:
inhibition index ([1]; compound 100X),"inhibition index ([1]; compound 2,000X)","inhibition of insulin aggregation, in words (Bovine insulin)",inhibition index (Bovine insulin),"inhibition index ([2]; compound 10,000X)","inhibition index ([2]; compound 50,000X)","inhibition index ([3]; compound 1,000×)","inhibition index ([3]; compound 10,000×)","inhibition index ([2]; compound 1,000X)","inhibition of citrate synthase aggregation, in words [2]","inhibition of FGF-1 aggregation, in words ([3]; text and FIG. 2 (1,000X to 50,000X))",Molecule
0.8 (0.1),1.5 (0.4),–,1.4 (0.6),1.4 (0.4),6.7 (0.1),3.1 (1.0),12.1 (8.8),–,–,–,"O=C(O)CCCCCC(=O)O [pimelate, pimelic acid]"
0.7 (0.0),2.5 (0.3),–,1.4 (0.1),0.7 (0.2),1.0,2.2 (1.1),3.1 (0.9),1.0 (0.2),Potent inhibitors,–,NCC(=O)NCC(=O)NCC(=O)O [triglycine] (H-Gly-Gly-Gly-OH)
0.9 (0.1),2.1 (0.3),–,1.0 (0.3),2.1 (0.5),9.6,2.1 (0.4),9.2 (1.9),–,–,–,"O=C(O)CCC(=O)O [succinate, succinic acid]"
0.8 (0.1),1.5 (0.3),–,0.9 (0.6)^3,1.9 (0.5),6.2 (3.8),5.2 (1.5),605.5 (89.1),–,–,effective inhibitors,"O=C(O)C(=O)O [oxalate, oxalic acid]"
0.4 (0.1),0.8 (0.1),–,1.1 (0.1),0.6 (0.1),1.9 (0.8),1.1 (0.2),1.5 (0.5),–,–,–,NCCC(=O)O [beta-alanine]
1.9 (0.3),–,–,1.0 (0.2),0.9 (0.3),1.5 (0.2),1.0 (0.1),1.2 (0.4),0.8 (0.1),Potent inhibitors,–,diglycine
0.4 (0.1),1.2 (0.2),–,1.0 (0.3),0.8 (0.2),–,1.3 (0.3),3.0 (1.7),–,–,–,NCC(=O)O [glycine]
0.7 (0.0),1.3 (0.1),–,0.9 (0.3),1.8 (0.5),18.5,2.2 (0.7),3.3 (1.3),–,–,–,NCCN [ethylenediamine]
0.7 (0.2),–,–,1.0 (0.2),–,–,–,–,0.6 (0.2),–,–,pentaglycine
